Test results as given in US20250018046A1, “COMPOUNDS FOR TARGETING DEGRADATION OF IRAK4 PROTEINS” (BIOGEN MA INC, priority 2021, published 2025).

The compounds below were run against T1, IRAK4 (Homo sapiens, UniProt Q9NWZ3) (assay: IRAK4 degradation assay using the HiBiT Method). Settings: 293T cells expressing HiBiT-tagged IRAK4; 6-hour incubation; Nano-Glo HiBiT Lytic Assay luminescence.
T1 construct: knocking-in a HiBiT fusion tag into the C-terminal of the IRAK4 gene in 293T cells; host or cells: 293T cells, knock-in of HiBiT at the endogenous IRAK4 locus
T1 sequence (Q9NWZ3 1-460): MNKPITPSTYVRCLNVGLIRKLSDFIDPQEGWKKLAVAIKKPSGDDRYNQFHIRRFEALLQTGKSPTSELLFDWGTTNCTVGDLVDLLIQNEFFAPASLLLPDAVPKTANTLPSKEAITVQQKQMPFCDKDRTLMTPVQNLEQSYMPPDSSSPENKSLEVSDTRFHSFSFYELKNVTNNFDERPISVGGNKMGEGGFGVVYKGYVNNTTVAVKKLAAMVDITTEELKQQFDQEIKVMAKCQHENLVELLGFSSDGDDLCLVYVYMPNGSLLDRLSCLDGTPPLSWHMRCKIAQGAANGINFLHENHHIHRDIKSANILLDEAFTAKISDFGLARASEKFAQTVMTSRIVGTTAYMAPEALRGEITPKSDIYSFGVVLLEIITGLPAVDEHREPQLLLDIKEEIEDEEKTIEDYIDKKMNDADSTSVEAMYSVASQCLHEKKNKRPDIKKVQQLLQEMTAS
Format: cell-based
Experimental: Selected compounds were tested in an IRAK4 degradation assay using the HiBiT Method.
Phenol red-free Dulbecco's modified Eagle medium (DMEM) and fetal bovine serum (FBS) were purchased from Gibco (Grand Island, NY, USA). The Nano-Glo© HiBiT Lytic Assay System was purchased from Promega (Madison, WI, USA). Cell culture flasks and 384-well microplates were acquired from VWR (Radnor, PA, USA). The 293T cell line was engineered by knocking-in a HiBiT fusion tag into the C-terminal of the IRAK4 gene in 293T cells (Synthego, Redwood City, CA, USA).
IRAK4 degradation was measured via the quantification of luminescent signals using the Nano-Glo© HiBiT Lytic Assay kit. Test compounds were added to 384-well plates in duplicate using an 11-point half-log dilution series, with the highest dose set at 10 mM. 293T cells expressing HiBiT-tagged IRAK4 were then added into 384-well plates at a cell density of 10,000 cells per well. The plates were kept at 37° C. with 5% CO2 for 6 hours. Cells that were treated only with DMSO served as the negative control; wells that contained only assay media served as the background control. After the 6-hour incubation, Nano-Glo® HiBiT Lytic Assay reagents were added to the cells. Luminescence was acquired using an EnVision® Multilabel Reader (PerkinElmer, Santa Clara, CA, USA).

Row | DC50 [nM] | Compound
1 | > 1000 | CC(C)Oc1cc2nc([C@H]3CC[C@H](CN(C)C4CCN(Cc5cccc(NC6CCC(=O)NC6=O)c5)CC4)CC3)cn2cc1NC(=O)c1cccc(C(F)(F)F)n1 (stereo partly drawn) [Example 46, N-[2-[4-[[[1-[[3-[(2,6-dioxo-3-piperidyl)amino]phenyl]methyl]-4-piperidyl]-methyl-amino]methyl]cyclohexyl]-7-isopropoxy-imidazo[1,2-a]pyridin-6-yl]-6-(trifluoromethyl) pyridine-2-carboxamide]
2 | 10 to 100 | CC(C)Oc1cc2nc([C@H]3CC[C@H](CN4CCC(c5cccc6c5n(C)c(=O)n6C5CCC(=O)NC5=O)CC4)CC3)cn2cc1NC(=O)c1cccc(C(F)(F)F)n1 (stereo partly drawn) [Example 37, N-[2-[4-[[4-[1-(2,6-dioxo-3-piperidyl)-3-methyl-2-oxo-benzimidazol-4-yl]-1-piperidyl]methyl]cyclohexyl]-7-isopropoxy-imidazo[1,2-a]pyridin-6-yl]-6-(trifluoromethyl)pyridine-2-carboxamide]
3 | 10 to 100 | CC(C)Oc1cc2nc(C3CCN(CC(=O)N4CCN(c5ccc(C6CCC(=O)NC6=O)cc5)CC4)CC3)cn2cc1NC(=O)c1cccc(C(F)(F)F)n1 (stereo not drawn) [Example 22, N-[2-[1-[2-[4-[4-(2,6-dioxo-3-piperidyl)phenyl]piperazin-1-yl]-2-oxo-ethyl]-4-piperidyl]-7-isopropoxy-imidazo[1,2-a]pyridin-6-yl]-6-(trifluoromethyl)pyridine-2-carboxamide]
4 | 100 to 500 | CC(C)Oc1cc2nc(C3CCN(CC(=O)N4CCC(c5ccc(NC6CCC(=O)NC6=O)cc5)CC4)CC3)cn2cc1NC(=O)c1ccccc1 (stereo not drawn) [Example 56, N-[2-[1-[2-[4-[4-[(2,6-dioxo-3-piperidyl)amino]phenyl]-1-piperidyl]-2-oxo-ethyl]-4-piperidyl]-7-isopropoxy-imidazo[1,2-a]pyridin-6-yl]benzamide]
5 | 100 to 500 | CC(C)Oc1cc2nc(C3CCN(CCCCCCc4ccc(NC5CCC(=O)NC5=O)cc4)CC3)cn2cc1NC(=O)c1cccc(C(F)(F)F)n1 (stereo not drawn) [Example 70, N-[2-[1-[6-[4-[(2,6-dioxo-3-piperidyl)amino]phenyl]hexyl]-4-piperidyl]-7-isopropoxy-imidazo[1,2-a]pyridin-6-yl]-6-(trifluoromethyl)pyridine-2-carboxamide]
6 | 100 to 500 | CC(C)Oc1cc2nc(CCCNC(=O)CN3CCC(c4ccc(NC5CCC(=O)NC5=O)cc4)CC3)cn2cc1NC(=O)c1cccc(C(F)(F)F)n1 (stereo not drawn) [Example 71, N-[2-[3-[[2-[4-[4-[(2,6-dioxo-3-piperidyl)amino]phenyl]-1-piperidyl]acetyl]amino]propyl]-7-isopropoxy-imidazo[1,2-a]pyridin-6-yl]-6-(trifluoromethyl)pyridine-2-carboxamide]
7 | 100 to 500 | CC(C)Oc1cc2nc(C3CN(CCC(=O)N4CCC(c5ccc(NC6CCC(=O)NC6=O)cc5)CC4)C3)cn2cc1NC(=O)c1cccc(C(F)(F)F)n1 (stereo not drawn) [Example 34, N-[2-[1-[3-[4-[4-[(2,6-dioxo-3-piperidyl)amino]phenyl]-1-piperidyl]-3-oxo-propyl]azetidin-3-yl]-7-isopropoxy-imidazo[1,2-a]pyridin-6-yl]-6-(trifluoromethyl)pyridine-2-carboxamide]
8 | 100 to 500 | CC(C)Oc1cc2nc(C3CCN(C(=O)C4CCCC5(CCN(C(=O)c6ccc(OC7CCC(=O)NC7=O)cc6)CC5)O4)CC3)cn2cc1NC(=O)c1cccc(C(F)(F)F)n1 (stereo not drawn) [Example 83, N-[2-[1-[9-[4-[(2,6-dioxo-3-piperidyl)oxy]benzoyl]-1-oxa-9-azaspiro[5.5]undecane-2-carbonyl]-4-piperidyl]-7-isopropoxy-imidazo[1,2-a]pyridin-6-yl]-6-(trifluoromethyl) pyridine-2-carboxamide]
9 | 10 to 100 | CC(C)Oc1cc2nc(C3CCN(CC(=O)N4CCC(c5ccc(NC6CCC(=O)NC6=O)cc5)CC4)CC3)cn2cc1NC(=O)c1ccccn1 (stereo not drawn) [Example 55, N-[2-[1-[2-[4-[4-[(2,6-dioxo-3-piperidyl)amino]phenyl]-1-piperidyl]-2-oxo-ethyl]-4-piperidyl]-7-isopropoxy-imidazo[1,2-a]pyridin-6-yl]pyridine-2-carboxamide]
